Assay results published in article PMC3648489, “The sodium glucose cotransporter 2 inhibitor empagliflozin does not prolong QT interval in a thorough QT (TQT) study” (Cardiovascular Diabetology, 2013).
“And” between values parts separate entries of the source, which are not always exact repeats. Equal entries are not always repeated. Where two headings read alike, the source gives them in different places.

Experiments:
healthy volunteers [1] = assay: Thorough QT study: triplicate 12-lead ECG, QTcN and heart rate change from baseline; format: in vivo, human; settings: for Difference from placebo in mean QTcN change from baseline, mean (SE): 1−4 hours after dosing; for Placebo-corrected MCfB in QTcN from all ECGs (90% CI): 0.5-24 hours after dosing; for Maximum upper CI of placebo-corrected QTcN change from baseline over the time course: 90% CI; for Range of adjusted means of placebo-corrected QTcN change from baseline over the time course: time points 0.5-24 hours
Description: This thorough QT study (TQT) was a randomised, double-blind (moxifloxacin open), placebo-controlled crossover trial which included the following treatments: 25 mg and 200 mg empagliflozin (Boehringer Ingelheim Pharma GmbH & Co. KG); 400 mg open-label moxifloxacin (Avalox®; Bayer Vital, Leverkusen, Germany); and two placebo periods, with a washout of at least seven days between treatments. Trial medication was administered in the morning after an overnight fast.
ECG recordings were made at screening and at the end of the study as part of the safety evaluation. For the QTc evaluation, ECG recordings were made on study drug administration days (as ECG profiles) at 60, 50 and 40 minutes pre-dose (to derive the period-specific baseline), and at 0.5, 1, 1.5, 2, 2.5, 3, 4, 6, 8, 12 and 24 hours post-dose (last three time points omitted for moxifloxacin treatment). At each time point, triplicate standard 12-lead ECGs (I, II, III, aVR, aVL, aVF, V1–V6) of 10 seconds’ duration each were recorded after at least 5 minutes’ rest in the supine position using CardioSoft ECG recording machines (GE Healthcare, Freiburg, Germany). ECGs were sent to a central laboratory for evaluation of PR, QRS, RR and QT intervals. The semi-automatic approach used for determination of the fiducial points provided an automatic pre-assessment using a computer algorithm, which was reviewed by a specialist and adjusted if necessary. This review was performed blinded with regard to treatment and time point.
Data from four cardiac cycles per ECG were averaged. A population heart rate-corrected QT interval (QTcN) was derived by determining the exponent δ of the relationship: QT ~ (1000 / RR)^δ (where δ is the regression effect of the covariate) using a linear mixed model on log-transformed RR and QT data (measured in ms). Data from triplicate ECGs were then averaged for each time point.
The primary endpoint was the mean change from baseline (MCfB) in QTcN which was the mean QTcN derived from ECGs obtained 1–4 hours post-dose minus mean QTcN from baseline ECGs obtained pre-dose at each visit. Plasma concentrations of both empagliflozin and moxifloxacin were expected to reach peak levels within this three-hour window, ensuring the most relevant levels of drug exposure.
(§1) Secondary endpoints were the changes from period baseline in QTcN at any time point between 0.5–24 hours after dosing. In addition, the MCfB 2–4 hours after dosing (for assessment of the moxifloxacin effect), and the MCfB of all ECGs taken 0.5–24 hours after dosing were evaluated. Safety and tolerability were evaluated based on physical examination, vital signs, ECG, clinical laboratory tests, adverse events (AEs) and the physician’s assessment of global tolerability.
Briefly, the primary analysis compared changes in the primary endpoint (QTcN MCfB over 1–4 hours) using an analysis of covariance (ANCOVA) model with ‘sequence’, ‘period’ and ‘treatment’ as fixed effects, ‘subjects nested within sequences’ as a random effect, and ‘pre-dose baseline’ as a covariate. Analyses were performed using pair-wise comparisons of the trial treatments. The saturated repeated measurements crossover (RMC) model with unstructured covariance using pair-wise comparisons of the trial treatments was used to evaluate changes from baseline in QTcN at any time point between 0.5–24 hours after dosing. […] For descriptive statistics and the exposure-response analysis, the changes from baseline in QTcN of the placebo periods were averaged prior to the derivation of the placebo corrected MCfB.
In agreement with ICH E14, all tests were performed one-sided against the threshold level of regulatory concern of 10 ms with type-I error of α=5%, which is statistically equivalent to the calculation of two-sided 90% confidence intervals for the adjusted mean estimates. […]

[2] = Empagliflozin plasma pharmacokinetics (HPLC-MS/MS) in the TQT study; format: in vivo, human; settings: for Tmax / AUC(0-t) / Cmax: human; for Tmax: po, read-out: tmax, median; for AUC(0-t): read-out: AUC0−tz, gMean; for Cmax: read-out: Cmax, gMean
Description: Blood samples for pharmacokinetic measurements were taken one hour before drug administration and at the same post-dose time points as ECG measurements, except for the moxifloxacin periods. Empagliflozin concentrations in plasma were determined using a validated high performance liquid chromatography, tandem mass spectrometry (HPLC-MS/MS) assay with a lower limit of quantification of 1.11 nmol/L (0.5 ng/mL). Results were calculated using peak area ratios and calibration curves were created using weighted (1/x2) quadratic regression. […] Pharmacokinetic parameters included Cmax, tmax which were determined directly from the plasma concentration-time profiles of each, and area under the plasma concentration curve from zero to the last quantifiable time point (AUC0–tz), calculated using the linear trapezoidal method for ascending concentrations and the log trapezoidal method for descending concentrations. Pharmacokinetic parameters were determined using WinNonlin™ software v5.2 (Pharsight Corporation, Mountain View, California, USA).

[3] = tested on: human ether-a-go-go related gene (hERG)-mediated potassium current; set-up: method as in unpublished data; settings: transfected HEK293 cells; ref unpublished data; cited from earlier work
[4] = set-up: method as in PMID 27121669; settings: cited from earlier work; for Cmax: read-out: Expected mean Cmax
[5] = Earlier single-dose pharmacokinetic study of empagliflozin in healthy volunteers; format: in vivo, human; settings: 200 mg versus 25 mg; based on ref 10
healthy volunteers [6] = assay: Safety and tolerability (adverse events) in the TQT study; format: in vivo, human
Description: as §1
Categorical endpoints such as AEs, cardiologic assessments and occurrence of ECG intervals beyond thresholds of regulatory concern (e.g. QTc >450 ms) were analysed based on incidence rates adjusted for the number of periods in which the treatment was given. Additionally, the analysis of such events in periods with any of the two doses of empagliflozin compared with the two placebo periods provides a direct comparison of incidence rates. All analyses were performed on the “full analysis set”, which comprised all recorded data of all subjects who received at least one dose of study treatment and had at least one ECG endpoint assessment at baseline and post treatment. No imputation for missing data was planned or performed.

[7] = tested on: guinea pig papillary muscle; set-up: method as in unpublished data; settings: empagliflozin doses of ≥10 μM (so in the source); ref unpublished data; cited from earlier work
healthy volunteers [8] = tested on: healthy volunteers; set-up: method as in PMID 19238652, PMID 15165918, PMID 15903123, PMID 11180026; settings: moxifloxacin 400 mg; cited from earlier work
[9] = empagliflozin 25 mg, 1-4 hours after administration
[10] = empagliflozin 200 mg, 1-4 hours after administration
[11] = empagliflozin 25 mg single oral dose, plasma, n=28
[12] = empagliflozin 200 mg single oral dose, plasma, n=30
[13] = single oral dose of 25 mg, healthy volunteers
[14] = moxifloxacin 400 mg, 2-4 hours after administration

OC[C@H]1O[C@@H](c2ccc(Cl)c(Cc3ccc(O[C@H]4CCOC4)cc3)c2)[C@H](O)[C@@H](O)[C@@H]1O [Empagliflozin, empagliflozin]
Difference from placebo in mean QTcN change from baseline, mean (SE) (healthy volunteers [1]; 25 mg empagliflozin, primary analysis model with placebo period 1 only): 0.2 (0.9) ms | Difference from placebo in mean QTcN change from baseline, mean (SE) (healthy volunteers [1]; 25 mg empagliflozin, primary analysis model with placebo period 2 only): 0.6 (1.0) ms | Difference from placebo in mean QTcN change from baseline, mean (SE) (healthy volunteers [1]; 200 mg empagliflozin, primary analysis model with placebo period 1 only): -0.5 (0.8) ms | Difference from placebo in mean QTcN change from baseline, mean (SE) (healthy volunteers [1]; 200 mg empagliflozin, primary analysis model with placebo period 2 only): 0.1 (0.8) ms | Slope estimates of exposure-response relationship between empagliflozin and heart rate (healthy volunteers [1]; both doses (25 mg and 200 mg), CIs include zero): slope estimates close to zero | Range of adjusted means of placebo-corrected heart rate change from baseline over the time course (healthy volunteers [1]; both empagliflozin doses (25 mg and 200 mg)): -1.2 to 1.5 bpm | 90% CIs of placebo-corrected heart rate change from baseline over the time course (healthy volunteers [1]; both empagliflozin doses (25 mg and 200 mg), all CIs within): -3 to 3 bpm | Intercept of exposure-response analysis of placebo-corrected QTcN change from baseline (healthy volunteers [1]; empagliflozin 25 mg): 0.35 ms | Slope (estimate) of exposure-response analysis of placebo-corrected QTcN change from baseline (healthy volunteers [1]; empagliflozin 25 mg): -0.0007 ms/(nmol/L) | QTcN mean change from baseline: ΔQTcN, adjusted mean (SE) (healthy volunteers [1]; empagliflozin 25 mg single oral dose, 1-4 hours after administration, n=28): 4.3 (1.1) ms | Placebo-corrected MCfB in QTcN from all ECGs (90% CI) (healthy volunteers [1]; empagliflozin 25 mg): 0.7 (90% CI: -0.4, 1.7) ms | Volunteers exceeding the QTcN threshold of 450 ms (healthy volunteers [1]; empagliflozin 25 mg, 0.5-24 hours post-dose, one volunteer): 3.6% | Difference from placebo: ΔΔHR, adjusted mean (SE) (healthy volunteers [1]; [9]): -0.9 (0.5) bpm | HR mean change from baseline: ΔHR, adjusted mean (SE) (healthy volunteers [1]; [9]): -1.2 (0.5) bpm | Difference from placebo: ΔΔQTcN (placebo-corrected MCfB in QTcN), adjusted mean (healthy volunteers [1]; empagliflozin 25 mg, 1-4 hours after dosing, both placebo periods): 0.6 (0.8) ms | Difference from placebo: ΔΔQTcN (placebo-corrected MCfB in QTcN), adjusted mean (healthy volunteers [1]; empagliflozin 25 mg, 1-4 hours after dosing, both placebo periods, listed as empagliflozin): 0.6 (90% CI: -0.7, 1.9) ms and 0.6 (90% confidence interval [CI]: -0.7, 1.9) ms | Maximum upper CI of placebo-corrected QTcN change from baseline over the time course (healthy volunteers [1]; empagliflozin 25 mg): 4.7 ms | Predicted value of placebo-corrected change from baseline QTcN at gMean of Cmax, estimate (healthy volunteers [1]; empagliflozin 25 mg, at gMean Cmax 768 nmol/L): -0.20 ms | Range of adjusted means of placebo-corrected QTcN change from baseline over the time course (healthy volunteers [1]; empagliflozin 25 mg): -2.7 to 2.2 ms | Intercept of exposure-response analysis of placebo-corrected QTcN change from baseline (healthy volunteers [1]; empagliflozin 200 mg): -0.60 ms | Slope (estimate) of exposure-response analysis of placebo-corrected QTcN change from baseline (healthy volunteers [1]; empagliflozin 200 mg): -0.0000 ms/(nmol/L) | QTcN mean change from baseline: ΔQTcN, adjusted mean (SE) (healthy volunteers [1]; empagliflozin 200 mg single oral dose, 1-4 hours after administration, n=30): 3.4 (0.9) ms | Placebo-corrected MCfB in QTcN from all ECGs (90% CI) (healthy volunteers [1]; empagliflozin 200 mg): -0.2 (-1.2, 0.9) ms | Volunteers exceeding the QTcN threshold of 450 ms (healthy volunteers [1]; empagliflozin 200 mg, 0.5-24 hours post-dose, two volunteers): 6.7% | Difference from placebo: ΔΔHR, adjusted mean (SE) (healthy volunteers [1]; [10]): 0.0 (0.5) bpm | HR mean change from baseline: ΔHR, adjusted mean (SE) (healthy volunteers [1]; [10]): -0.3 (0.5) bpm | Difference from placebo: ΔΔQTcN (placebo-corrected MCfB in QTcN), adjusted mean (healthy volunteers [1]; empagliflozin 200 mg, 1-4 hours after dosing, both placebo periods): -0.2 (0.7) ms | Difference from placebo: ΔΔQTcN (placebo-corrected MCfB in QTcN), adjusted mean (healthy volunteers [1]; empagliflozin 200 mg, 1-4 hours after dosing, both placebo periods, listed as empagliflozin): -0.2 (-1.4, 0.9) ms | Maximum upper CI of placebo-corrected QTcN change from baseline over the time course (healthy volunteers [1]; empagliflozin 200 mg): 3.5 ms | Predicted value of placebo-corrected change from baseline QTcN at gMean of Cmax, estimate (healthy volunteers [1]; empagliflozin 200 mg, at gMean Cmax 4860 nmol/L): -0.64 ms | Range of adjusted means of placebo-corrected QTcN change from baseline over the time course (healthy volunteers [1]; empagliflozin 200 mg): -1.8 to 1.6 ms | Dose proportionality of empagliflozin exposure ([2]; 25 mg and 200 mg single doses): increased approximately dose proportionally | tmax, median [2, 11]: 1.5 h | Tmax ([2]; plasma, 25 mg, empagliflozin 25 mg single oral dose, plasma, n=28): ~1.5 h | Tmax ([2]; plasma, 200 mg, empagliflozin 200 mg single oral dose, plasma, n=30): ~1.8 h | AUC(0-t) [2, 11]: 4.86 µM·h | Cmax [2, 11]: 768 nM | AUC(0-t) [2, 12]: 36.4 µM·h | Cmax [2, 12]: 4860 nM | Interaction with hERG-mediated potassium current [3]: No relevant interactions | Effect of food on drug exposure [4]: no clinically relevant effects of food on drug exposure | Terminal elimination half-life ([4]; doses ≥10 mg): 10 to 13 h | Time to peak levels ([4]; single doses of empagliflozin (≥800 mg as printed)): 1.5 to 2.5 h | Mean tmax [4, 13]: 2.2 h | Cmax [4, 13]: 505 nM | Cmax ([4]; single oral dose of 200 mg, healthy volunteers): 3490 nM | Cmax ratio supratherapeutic dose versus therapeutic dose [5]: ~ 7 fold | Volunteers experiencing AEs (healthy volunteers [6]; human, in vivo): 23.3% | Effect on action potential configuration or contractile function [7]: no effect on action potentials

COc1c(N2C[C@@H]3CCCN[C@@H]3C2)c(F)cc2c(=O)c(C(=O)O)cn(C3CC3)c12 [Moxifloxacin, moxifloxacin, reference compound]
Number of volunteers with a change in QTcN more than 30 ms (healthy volunteers [1]; moxifloxacin 400 mg): Five | QTcN mean change from baseline: ΔQTcN, adjusted mean (SE) (healthy volunteers [1]; moxifloxacin 400 mg single dose, open-label, 2-4 hours after administration, n=29): 16.0 (1.2) ms | Volunteers exceeding the QTcN threshold of 450 ms (healthy volunteers [1]; moxifloxacin 400 mg, 0.5-6 hours post-dose, two volunteers): 6.9% | Difference from placebo: ΔΔHR, adjusted mean (SE) (healthy volunteers [1]; [14]): 2.2 (0.6) bpm | HR mean change from baseline: ΔHR, adjusted mean (SE) (healthy volunteers [1]; [14]): 2.0 (0.6) bpm | Difference from placebo: ΔΔQTcN (placebo-corrected MCfB in QTcN), adjusted mean (healthy volunteers [1]; moxifloxacin 400 mg, 2-4 hours post-dose, assay sensitivity): 12.4 (1.0) ms | Difference from placebo: ΔΔQTcN (placebo-corrected MCfB in QTcN), adjusted mean (healthy volunteers [1]; moxifloxacin 400 mg, 2-4 hours post-dose, assay sensitivity, listed as moxifloxacin): 12.4 (10.7, 14.1) ms | Serious AE leading to study discontinuation (healthy volunteers [6]; moxifloxacin, one participant, not considered related to study medication): fatal car accident | Prolongation of heart rate-corrected QT interval compared to placebo (healthy volunteers [8]): 6 to 15 ms
